Series [1] concerns influenza A virus (H5N1, H9N2, H1N1). Nature of the series: microbe, parasite or virus in culture. Format: cell-based. The following applies: for IC50: Influenza A virus, read-out: IC50 range over three IAV subtypes.
For a further series, the system named is H5N1 virus. Format: cell-based, Influenza A virus A/Duck/Guangdong/99 (H5N1).
The test system of series [2] is H5N1. Format: cell-based, Influenza A virus A/Duck/Guangdong/99 (H5N1).
In series [3] the test system is nuclear export of viral RNP complexes (H5N1). The format is cell-based, Influenza A virus A/Duck/Guangdong/99 (H5N1).
Series [4] concerns H5N1. The series is described as follows: microbe, parasite or virus in culture. The format is cell-based, Influenza A virus A/Duck/Guangdong/99 (H5N1). The conditions noted are these: Influenza A virus, H5N1, A549, read-out: IC50 (H5N1).
The test system of series [5] is H9N2. Nature of the series: microbe, parasite or virus in culture. The following applies: Influenza A virus, H9N2, A549, read-out: IC50 (H9N2). Format: cell-based, Influenza A virus A/Chicken/Guangdong/96 (H9N2).
Series [6] has as its system PR8 (H1N1). Nature of the series: microbe, parasite or virus in culture. Format: cell-based, Influenza A virus A/Puerto Rico/8/34 (PR8). The conditions noted are these: Influenza A virus, A549, read-out: IC50 (PR8 (H1N1)).
Series [7] has as its system H5N1. Nature of the series: microbe, parasite or virus in culture. The following applies: Influenza A virus, H5N1, MDCK, read-out: IC50 (H5N1). Format: cell-based, Influenza A virus A/Duck/Guangdong/99 (H5N1).
Series [8] concerns H9N2. The series is described as follows: microbe, parasite or virus in culture. The conditions noted are these: Influenza A virus, H9N2, MDCK, read-out: IC50 (H9N2). The format is cell-based, Influenza A virus A/Chicken/Guangdong/96 (H9N2).
The subject of series [9] is PR8 (H1N1). Nature of the series: microbe, parasite or virus in culture. The format is cell-based, Influenza A virus A/Puerto Rico/8/34 (PR8). The following applies: Influenza A virus, MDCK, read-out: IC50 (PR8 (H1N1)).
Series [10] concerns PR8 (H1N1). The format is cell-based, Influenza A virus A/Puerto Rico/8/34 (PR8).
The test system of a further series is H9N2 virus. Format: cell-based, Influenza A virus A/Chicken/Guangdong/96 (H9N2).
For series [11], the system named is H5N1. Format: cell-based, Influenza A virus A/Duck/Guangdong/99 (H5N1). The conditions noted are these: 60 μM.
A short description of series [12]: MTT cytotoxicity assay on A549 cells. The following applies: human. A general note: Formazan colour is commonly taken as a measure of viable cells.
The next series concerns A549 cells. Nature of the series: MTT cytotoxicity assay on A549 cells. The following applies: 48 or 72 h treatment, MTT.
A short description of series [13]: MTT cytotoxicity assay on MDCK cells. The conditions noted are these: dog.
The subject of the next series is MDCK cells. Nature of the series: MTT cytotoxicity assay on MDCK cells. The following applies: 48 or 72 h treatment, MTT.

Structures can show the parent of a compound that is named as a salt. Where two headings read alike, the source gives them in different places.

The record followed here is paper PMC6321071, “Chenodeoxycholic Acid from Bile Inhibits Influenza A Virus Replication via Blocking Nuclear Export of Viral Ribonucleoprotein Complexes” (Molecules, 2018).

By IC50 is commonly meant the midpoint of a concentration-inhibition curve. In general, CC50 refers to the concentration at which the toxic effect on the cells reaches its halfway point. A high value points to better tolerance by the cells.

On to `NC(=O)c1ncn([C@@H]2O[C@H](CO)[C@@H](O)[C@H]2O)n1` [ribavirin, Ribavirin hydrochloride], for which the “reduction of progeny virus production relative to 60 μM CDCA” value in [1] (90 μM) is on record as “slightly more potent”. In addition, the “inhibition of H5N1 infection (CPE, NP expression)” value with H5N1 virus (90 μM) is given as “significant inhibition”. Besides, in the series with H5N1 [2], the “IAV inhibition (NP expression), added 6–8 hpi” value was “no inhibition” and the “IAV inhibition (NP expression), added before 6 hpi” value is on record as “much better IAV inhibition”. The “nuclear export of vRNP complexes” value in series [3] is on record as “did not block”.
Consider `C[C@H](CCC(=O)O)[C@H]1CC[C@H]2[C@@H]3[C@H](O)C[C@@H]4C[C@H](O)CC[C@]4(C)[C@H]3CC[C@]12C` [CDCA, Chenodeoxycholic acid], for which the IC50 with H5N1 [4] was 8.2 ± 1.2 µM; in the series with H9N2 [5], 11.5 ± 1.7 µM; with PR8 (H1N1) [6] it was 7.7 ± 0.7 µM; with H5N1 [7] it was 6.5 ± 0.5 µM; with H9N2 [8], 5.5 ± 0.7 µM; in the series with PR8 (H1N1) [9], 7.2 ± 0.7 µM. The IC50 in series [1] lay within 5.5 to 11.5 µM. Besides, the progeny virus titers entry in series [1] is “significantly inhibited”. The “H5N1 replication (CPE, NP expression)” value in the series with H5N1 virus is on record as “significantly inhibited”. The “anti-IAV activity, CPE (PR8 (H1N1))” value in the series on PR8 (H1N1) [10] is recorded as “reduced CPE”. Besides, in the series on H9N2 virus, the “anti-IAV activity, CPE (H9N2)” value is given as “reduced CPE”. Besides, the “decrease of progeny virus yield, post-treatment” value with H5N1 [11] is on record as “more than 90%”. For the same compound, the “progeny virus yield and viral NP production, pretreatment” value in the series on H5N1 [11] was “did not reduce”. Also, in the series on H5N1 [11], the “virus replication, cotreatment” value is recorded as “did not affect”. The “inhibition of virus replication (NP expression), added 4–6 and 6–8 hpi” value in the series with H5N1 [2] (60 μM) was “more significant inhibition”. Also, the “early NP localization events (cytosol to nucleus translocation)” value in series [3] was “did not affect”. The “nuclear export of vRNP complexes” value in [3] is “inhibited”. Besides, the CC50 in series [12] came to 372 ± 41.2 µM; in series [13], 121 ± 9.7 µM. Moreover, the “concentrations with no obvious cytotoxicity” value in the series with A549 cells is not above 125 µM; in the series on MDCK cells, not above 62.5 µM.
As for `C[C@H](CCC(=O)O)[C@H]1CC[C@H]2[C@@H]3[C@@H](O)C[C@@H]4C[C@H](O)CC[C@]4(C)[C@H]3CC[C@]12C` [UDCA, ursodeoxycholic acid], the IC50 with H5N1 [4] was 34.2 ± 3.7 µM; in the series on H9N2 [5], 58.7 ± 4.5 µM; in the series with PR8 (H1N1) [6], 43 ± 4.5 µM; in the series on H5N1 [7], 47.2 ± 3.2 µM; in the series with H9N2 [8], 36.7 ± 3.5 µM; in the series with PR8 (H1N1) [9], 56.2 ± 5 µM. In [1], the IC50 fell in the range of 31 to 73.7 µM. Also, the CC50 in series [12] came to 815 ± 49.2 µM; in [13], 596 ± 53 µM.
Regarding `C[C@H](CCC(=O)O)[C@H]1CC[C@H]2[C@@H]3C[C@H](O)[C@@H]4C[C@H](O)CC[C@]4(C)[C@H]3CC[C@]12C` [HDCA, hyodeoxycholic acid], the IC50 stood at 60 ± 5.5 µM in the series on H5N1 [4]; 53 ± 6.5 µM in the series on H9N2 [5]; 73.7 ± 6.7 µM with PR8 (H1N1) [6]; 41.2 ± 3.5 µM in the series on H5N1 [7]; 31 ± 2.2 µM in the series with H9N2 [8]; 43.5 ± 2.7 µM in the series with PR8 (H1N1) [9]. Also, the IC50 in series [1] fell in the range of 31 to 73.7 µM. In addition, the half-maximal cytotoxic concentration (CC50) in [12] was 486 ± 55 µM; in series [13], 414 ± 33.7 µM.
On to `CCC(=C/[C@H](C)C/C=C/C(C)=C/[C@@H](C)C(=O)[C@@H](C)[C@H](O)[C@@H](C)C/C(C)=C/C(=O)O)/C=C/[C@@H]1OC(=O)C=C[C@@H]1C` [Leptomycin B (LMB), Leptomycin B], for which the “nuclear export of vRNP complexes” value in [3] is recorded as “efficiently blocked”.
